These results are taken from patent US20240190890A1, “MK2 INHIBITORS AND USES THEREOF” (Bristol-Myers Squibb Company, priority 2022, published 2024).

Usually IC50 stands for the concentration needed to halve the response being measured.

p38a activated, mitogen-activated protein kinase-activated protein kinase 2 (MAPKAP-K2 or MK2) enzyme, sequence (P49137 whole entry): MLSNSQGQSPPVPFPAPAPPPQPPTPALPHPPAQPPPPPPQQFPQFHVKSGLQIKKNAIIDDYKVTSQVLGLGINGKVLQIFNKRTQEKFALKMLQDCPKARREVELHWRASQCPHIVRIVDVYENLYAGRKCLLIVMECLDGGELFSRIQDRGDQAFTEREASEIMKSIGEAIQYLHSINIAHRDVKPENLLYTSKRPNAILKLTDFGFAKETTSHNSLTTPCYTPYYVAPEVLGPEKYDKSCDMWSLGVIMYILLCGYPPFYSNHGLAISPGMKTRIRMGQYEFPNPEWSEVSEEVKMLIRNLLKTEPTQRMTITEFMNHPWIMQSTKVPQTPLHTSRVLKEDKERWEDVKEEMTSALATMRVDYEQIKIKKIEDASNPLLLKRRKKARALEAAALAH

The test concerns the target p38a activated, mitogen-activated protein kinase-activated protein kinase 2 (MAPKAP-K2 or MK2) enzyme (Homo sapiens (Human), UniProt P49137). The test can be described thus: MK2 Omnia continuous-read kinase assay for compound potency. It counts as biochemical. The conditions noted are these: [MK-2]=0.4 nM, [ATP]=10 μM, [ST3-Sox]=10 μM; room temperature. The method in brief:
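Continuous Sox-peptide fluorescence read (ex360/em485) every 71 s over 2 h at room temperature. Reactions: 10 μM each of ATP (at apparent Km) and S/T3-Sox, 0.4 nM p38a-activated MK2, pH 7.5 Tris/MgCl2 buffer. Initial rates yield % inhibition and IC50; single-exponential kobs values yield apparent kinact/KI.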
Turning to `C[C@@H]1CNc2c(sc3ccc4nc(-c5ccnc(Cl)c5)ccc4c23)C(=O)N1` [Example I-272, (R)-3-(2-chloropyridin-4-yl)-10-methyl-9,10,11,12-tetrahydro-8H-[1,4]diazepino[5′,6′:4,5]thieno[3,2-f]quinolin-8-one], the IC50 was found to be 0.068 µM.
Take `C[C@@H]1CNc2c(sc3ccc4nc(-c5nc(Cl)ncc5F)ccc4c23)C(=O)N1` [Example I-273, (R)-3-(2-chloro-5-fluoropyrimidin-4-yl)-10-methyl-9,10,11,12-tetrahydro-8H-[1,4]diazepino[5′,6′:4,5]thieno[3,2-f]quinolin-8-one]: the IC50 was found to be 0.153 µM.
The same measure for `C[C@@H]1CNc2c(sc3ccc4nc(-c5nc(Cl)c(C(F)(F)F)cc5F)ccc4c23)C(=O)N1` [Example I-274, (R)-3-(6-chloro-3-fluoro-5-(trifluoromethyl)pyridin-2-yl)-10-methyl-9,10,11,12-tetrahydro-8H-[1,4]diazepino[5′,6′:4,5]thieno[3,2-f]quinolin-8-one]: 0.752 µM.
For “(10R)-3-(2-(2,6-dimethylmorpholino)-6-vinylpyridin-4-yl)-10-methyl-9,10,11,12-tetrahydro-8H-[1,4]diazepino[5′,6′:4,5]thieno[3,2-f]quinolin- [Example I-201]”, the IC50 was 0.073 µM.
“(R)-3-(2-chloro-5-(ethoxymethyl)pyrimidin-4-yl)-10-methyl-9,10,11,12-tetrahydro-8H-[1,4]diazepino[5′,6′:4,5]thieno[3,2-f]quinolin- [Example I-3]”: the IC50 came to 0.107 µM.
Consider “(R)-10-methyl-3-(2-(4-methylpiperazin-1-yl)-6-vinylpyridin-4-yl)-9,10,11,12-tetrahydro-8H-[1,4]diazepino[5′,6′:4,5]thieno[3,2-f]quinolin- [Example I-96]”, for which the IC50 is 0.01 µM.
“(R)-10-methyl-3-(6-(3-morpholinoprop-1-en-2-yl)pyrimidin-4-yl)-9,10,11,12-tetrahydro-8H-[1,4]diazepino[5′,6′:4,5]thieno[3,2-f]quinolin- [Example I-139]”: the IC50 was 0.002 µM.
The same measure for “(R)-10-methyl-3-(6-(4-methylpiperazin-1-yl)-2-vinylpyrimidin-4-yl)-9,10,11,12-tetrahydro-8H-[1,4]diazepino[5′,6′:4,5]thieno[3,2-f]quinolin- [Example I-18]”: 0.004 µM.
